In assay [1] the target is T1, catalytic domain of human PTP1B (Homo sapiens, UniProt P18031).
T1 construct: catalytic domain of human PTP1B (amino acids 1–321); His7 (N, cleaved yes); made in house; host or cells: E. coli Rosetta (DE3)
T1 sequence (P18031 1-321): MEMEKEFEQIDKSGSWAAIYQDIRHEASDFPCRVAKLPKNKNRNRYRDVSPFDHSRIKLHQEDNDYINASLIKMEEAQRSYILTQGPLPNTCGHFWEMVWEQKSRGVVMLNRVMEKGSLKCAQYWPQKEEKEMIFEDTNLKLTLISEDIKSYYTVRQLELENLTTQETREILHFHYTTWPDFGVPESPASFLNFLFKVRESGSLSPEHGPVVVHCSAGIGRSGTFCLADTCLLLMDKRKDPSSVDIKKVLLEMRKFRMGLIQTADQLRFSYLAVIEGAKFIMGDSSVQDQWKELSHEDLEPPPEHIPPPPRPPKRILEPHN
Kind of assay: Enzyme activity assay of PTP1B with fluorogenic substrate DiFMUP. The format is biochemical. To be noted: SD. As to the method: Protein Expression and purification: DNA encoding the catalytic domain of human PTP1B (amino acids 1–321) was subcloned into the pQLinkH vector. The gene encoding the N‐terminal His7‐tagged protein was over‐expressed at 17 °C in E. coli Rosetta (DE3). […] The His7‐tag was cleaved with tobacco etch virus protease at 20 °C prior to the gel‐filtration step. The catalytic domain of human SHP2 (amino acids 225–541) was purified from E. coli B21 (DE3). The overexpressed protein was fused to an N‐terminal His10‐tag. Cells were harvested and resuspended in 25 mM Tris‐HCl (pH=7.5), 50 mM NaCl, 1 % (v/v) Triton X‐100, 10 % (v/v) glycerol, 1 mM DTT. After cell lysis, debris was removed by centrifugation at 12,000 rpm for 30 min. The supernatant was filtered prior to affinity purification with Ni‐NTA agarose (Qiagen). The slurry was washed with 50 mM Tris‐HCl (pH=8.0), 500 mM NaCl supplemented with 25 mM imidazole. Reasonably pure protein was eluted with 200–300 mM imidazole. The purification was completed by size‐exclusion chromatography with a Superdex 75 16/600 column (GE Healthcare) equilibrated with 20 mM HEPES‐NaOH (pH=7.5), 50 mM NaCl, 1 mM DTT.
(§1) Enzyme activity assays of SHP2 and PTP1B: The catalytic activity of SHP2 catalytic domain and PTP1B were monitored using the fluorogenic substrate DiFMUP (6,8‐difluoro‐4‐methylumbelliferyl phosphate). Phosphatase reactions were performed at room temperature in 384‐well black plate, clear flat bottom, low flange, non‐binding surface (Corning, Cat# 3766) using a final volume of 20 μL and the following assay buffer conditions: 50 mM MOPS, pH=6.5, 200 mM NaCl, 50 μM TCEP, 0.03 % Tween‐20 (freshly added prior to each measurement). Test compounds were dissolved in DMSO or buffer at stock concentrations of 50, 20 or 10 mM and serially diluted. Enzyme (5 nM PTP1B or 2.5 nM SHP2 catalytic domain) and different concentrations of the tested compounds were incubated in buffer for 30–60 min at room temperature. Measurements were performed with a final concentration of 2.5 % DMSO unless stated otherwise at 37 °C and were performed in triplicate. Enzymatic reactions were started by adding DiFMUP (Invitrogen, cat# D6567) concentrations matching the experimentally determined KM values of the enzymes of 67 μM (PTP1B) or 72 μM (SHP2). Samples were excited at a wavelength of 360 nm and emitted fluorescence was recorded at 460 for 10 min using a microplate reader (infinite M1000 Pro, Tecan). Initial slope of fluorescence was determined in triplicate and IC50 values were calculated with GraphPad Prism 5. Determined IC50 values were converted into the corresponding KI values applying the Cheng Prusoff equation KI =IC50 /(1+[S]/KM ).

The subject of assay [2] is HGF‐induced tyrosine phosphorylation of ERK 1/2 in HeLa cells. Kind of assay: Western blot of p-ERK in HGF-stimulated HeLa cells. The format is cell-based. The conditions noted are these: 1 h treatment; for Concentration giving (complete) dephosphorylation of Erk / inhibition of Erk phosphorylation: HGF 20 ng/well, Western blot p-ERK. How it is done:
Cellular experiments: HeLa cells were cultivated in DMEM buffer with 10 % FCS in 75 cm^2 cell culture flasks at 37 °C, 5 % CO2. At confluency of about 75 %, cells were seeded in a density of 250,000 cells/mL in 6‐well plates and incubated for 24 h. Subsequently, medium was removed and replaced by DMEM buffer with 0.1 % BSA (1 mL per well) and incubated for another 16 h. Hepatocyte growth factor (HGF, 20 ng/well) and test compounds in different final concentrations (1 μL, in DMSO) were added. Control wells received the same amount of DMSO (final concentration 0.1 %) or no addition. Plates were incubated for 1 h, then washed with cold PBS and shaken with lysis buffer (mPer reagent ThermoScientific # 78501 with 1 mM NaF, 2 mM Na3VO4, 25× protease inhibitor) for 5 min. Cell lysates were transferred to Eppendorf cups and centrifuged at 4 °C with 10,000 g for 10 min. […] The blot was incubated with anti‐phospo‐ERK as primary antibody (Cell Signaling # 9106, dilution 1 : 2000 in TBS‐Tween/ 2 % BSA) overnight at 4 °C, washed 3×5 min with TBS‐Tween, and incubated with anti‐mouse IgG‐hrp as secondary antibody (Santa Cruz # sc2031, 1 : 6000 in TBS‐ Tween/ 2 % BSA, RT, 1.5 h). The blot was again washed 3×5 min with TBS‐Tween and imaged with the ECL system (ThermoScientific # 34080) at Syngene PXi Imager. From the same lysis sample, under the same conditions, ERK 1/2 and β‐tubulin were blotted. For β‐tubulin, the antibody incubation time was adjusted to 2 h at RT.
Background: In western blotting, separated proteins are transferred to a membrane and probed.

The target in assay [3] is T2, catalytic domain of human SHP2 (Homo sapiens, UniProt Q06124).
T2 construct: catalytic domain of human SHP2 (amino acids 225–541); His10 (N); made in house; host or cells: E. coli B21 (DE3)
T2 sequence (Q06124 225-541): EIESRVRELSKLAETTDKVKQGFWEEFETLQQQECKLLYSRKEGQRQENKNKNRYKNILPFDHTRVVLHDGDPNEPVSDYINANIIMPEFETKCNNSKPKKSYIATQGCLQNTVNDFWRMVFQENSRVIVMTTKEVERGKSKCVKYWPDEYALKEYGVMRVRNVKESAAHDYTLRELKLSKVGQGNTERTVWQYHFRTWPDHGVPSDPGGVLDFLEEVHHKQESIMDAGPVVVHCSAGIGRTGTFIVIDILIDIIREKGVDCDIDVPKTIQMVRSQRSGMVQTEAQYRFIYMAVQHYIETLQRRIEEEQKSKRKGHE
Kind of assay: Enzyme activity assay of SHP2 catalytic domain with fluorogenic substrate DiFMUP. The assay is classed as biochemical.
Protocol: Enzyme activity assays of SHP2 and PTP1B: The catalytic activity of SHP2 catalytic domain and PTP1B were monitored using the fluorogenic substrate DiFMUP (6,8‐difluoro‐4‐methylumbelliferyl phosphate). Phosphatase reactions were performed at room temperature in 384‐well black plate, clear flat bottom, low flange, non‐binding surface (Corning, Cat# 3766) using a final volume of 20 μL and the following assay buffer conditions: 50 mM MOPS, pH=6.5, 200 mM NaCl, 50 μM TCEP, 0.03 % Tween‐20 (freshly added prior to each measurement). Test compounds were dissolved in DMSO or buffer at stock concentrations of 50, 20 or 10 mM and serially diluted. Enzyme (5 nM PTP1B or 2.5 nM SHP2 catalytic domain) and different concentrations of the tested compounds were incubated in buffer for 30–60 min at room temperature. […] Enzymatic reactions were started by adding DiFMUP (Invitrogen, cat# D6567) concentrations matching the experimentally determined KM values of the enzymes of 67 μM (PTP1B) or 72 μM (SHP2). Samples were excited at a wavelength of 360 nm and emitted fluorescence was recorded at 460 for 10 min using a microplate reader (infinite M1000 Pro, Tecan). Initial slope of fluorescence was determined in triplicate and IC50 values were calculated with GraphPad Prism 5. Determined IC50 values were converted into the corresponding KI values applying the Cheng Prusoff equation KI =IC50 /(1+[S]/KM ).

Assay [4] concerns the target T3, PTP1B (Homo sapiens, UniProt P18031).
T3 construct: catalytic domain of human PTP1B (amino acids 1–321); His7 (N, cleaved yes); made in house; host or cells: E. coli Rosetta (DE3)
T3 sequence (P18031 1-321): T1 sequence (P18031 1-321)
Kind of assay: Dynamic ligation screening of nucleophilic fragments with formylglycine peptide 3, PTP1B. The assay is classed as biochemical. To be noted: 3 100 μM pre-incubated 5 min, fragment 200 μM, 30 min RT before DiFMUP, triplicates. How it is done:
as §1
Dynamic ligation screening of nucleophilic fragments with 3: Under assay conditions described above, PTP1B or SHP2 were pre‐incubated with 3 (100 μM) for 5 min. Subsequently, (200 μM) of the respective fragments were added and the resulting mixtures were incubated for 30 min at RT, prior to DiFMUP addition.

Here are results for twelve compounds from publication PMC9804470, “A Formylglycine‐Peptide for the Site‐Directed Identification of Phosphotyrosine‐Mimetic Fragments” (Chemistry (Weinheim an Der Bergstrasse, Germany), 2022).

Where two headings read alike, the source gives them in different places. *1 amine or outer side, *2 acyl side, *3 side chain or, on linkers, in order; H or OH if unused. Where a SMILES comes first, the peptide text is derived from it. [ ]: non-standard residue; d: D form. The star is where a group is joined. ξ: configuration not given here. F2Pmp = N[C@@H](Cc1ccc(C(F)(F)P(=O)(O)O)cc1)C(=O)O; X3 = O=C1NC(=O)C(CC(N[*:1])C(=O)[*:2])C(=O)N1; X4 = O=S(=O)(Nc1ccc(*)cc1)C(F)(F)F; X2 = O=C(O)COc1ccc(*)cc1; X1 = O=C(O)Cc1ccc(*)cc1; Dap = NC[C@H](N)C(=O)O; ξDap = NCC(N)C(=O)O

For the compound `CC(=O)N[C@@H](CC(=O)O)C(=O)N[C@@H](C)C(=O)N[C@@H](CC(=O)O)C(=O)N[C@@H](CCC(=O)O)C(=O)N[C@@H](Cc1ccc(C(F)(F)P(=O)(O)O)cc1)C(=O)N[C@@H](CC(C)C)C(N)=O` [Compound 2, Ac-DADE-(PDFM-F)-L-NH2, reference compound] (Ac-DADE[F2Pmp]L-NH2), the Ki in assay [1] (read-out: KI PTP1B) came out at 1.4 ± 0.4 µM. The same measure, in the same setting: the figure for `CC(=O)N[C@@H](CC(=O)O)C(=O)N[C@@H](C)C(=O)N[C@@H](CC(=O)O)C(=O)N[C@@H](CCC(=O)O)C(=O)NC(CNc1ccc(CC(=O)O)cc1)C(=O)N[C@@H](CC(C)C)C(N)=O` (stereo partly drawn) [Compound 15] (Ac-DADE[ξDap](X1)L-NH2) is 138 ± 21 µM. Same read-out and setting: the figure for `CC(=O)N[C@@H](CC(=O)O)C(=O)N[C@@H](C)C(=O)N[C@@H](CC(=O)O)C(=O)N[C@@H](CCC(=O)O)C(=O)NC(CNc1ccc(OCC(=O)O)cc1)C(=O)N[C@@H](CC(C)C)C(N)=O` (stereo partly drawn) [Compound 16] (Ac-DADE[ξDap](X2)L-NH2) is 213 ± 21 µM.

For `CC(=O)N[C@@H](CC(=O)O)C(=O)N[C@@H](C)C(=O)N[C@@H](CC(=O)O)C(=O)N[C@@H](CCC(=O)O)C(=O)NC(CC1C(=O)NC(=O)NC1=O)C(=O)N[C@@H](CC(C)C)C(N)=O` (stereo partly drawn) [Compound 17] (Ac-DADE[X3]L-NH2), the Ki in assay [1] was 123 ± 16 µM. On to `CC(=O)N[C@@H](CC(=O)O)C(=O)N[C@@H](C)C(=O)N[C@@H](CC(=O)O)C(=O)N[C@@H](CCC(=O)O)C(=O)N[C@@H](CNc1ccc(NS(=O)(=O)C(F)(F)F)cc1)C(=O)N[C@@H](CC(C)C)C(N)=O` [Compound 18] (Ac-DADE[Dap](X4)L-NH2), for which the inhibition constant Ki in assay [1] (read-out: KI PTP1B) is 202 ± 21 µM. On to `O=C1/C(=N\Nc2ccc(NS(=O)(=O)C(F)(F)F)cc2)C(c2ccc([N+](=O)[O-])cc2)=NN1c1ccc([N+](=O)[O-])cc1` [Compound 22], for which the “Effect on HGF‐induced tyrosine phosphorylation of ERK 1/2” value in assay [2] (Western blot, DMSO control) is “decreased”. Further, in assay [2], the “Concentration giving (complete) dephosphorylation of Erk / inhibition of Erk phosphorylation” value stood at 25 µM. Moreover, the inhibition constant (Ki) in assay [3] (DiFMUP 72 μM (= KM), enzyme 1.5 nM, triplicate, from IC50 by Cheng-Prusoff (IC50/2), read-out: KI SHP2 (Table 2, footnote a)) came to 5.9 µM. With `O=C(O)COc1ccc(N/N=C2\C(=O)N(c3ccc([N+](=O)[O-])cc3)N=C2c2ccc([N+](=O)[O-])cc2)cc1` [Compound 23, (Z)‐2‐(4‐(2‐(1,3‐Bis‐(4‐nitrophenyl)‐5‐oxo‐1,5‐dihydro‐4H‐pyrazol‐4‐ylidene)‐hydrazinyl)‐phenoxy)‐acetic acid], the “Concentration giving (complete) dephosphorylation of Erk / inhibition of Erk phosphorylation” value in assay [2] is more than 100 µM. The Ki in assay [3] (catalytic domain of SHP2, DiFMUP, from IC50 by Cheng-Prusoff, GS-493 sentence carries ref 26, read-out: KI SHP2) worked out at 0.275 µM. Consider `Nc1ccc(C(=O)O)cc1` [Compound F5, 4‐amino benzoic acid], for which the “Enhancement of inhibition of PTP1B by fragment in combination with peptide 3 (fragment ligation assay)” value (shortened to “Enhancement of inhibition of PTP1B”) in assay [4] is “inactive”. The same measure, in the same setting: the entry for `Nc1ccc(C(F)(F)F)cc1` [Compound F8, 4‐amino‐phenyl‐trifluoromethane] is “inactive”; for `O=P(O)(O)C(F)(F)C1CCNCC1` [Compound F9, 4‐piperidinyl‐difluoromethyl phosphonate] it is “inactive”. `Nc1ccccc1` [aniline, reference compound]: the “Enhancement of inhibition of PTP1B” value in assay [4] was “entirely inactive”. Turning to “N‐(4‐aminophenyl)‐sulfonic acid [Compound F6]”, in assay [4], the “Enhancement of inhibition of PTP1B” value is “inactive”.

The Ki is a measure of affinity in units of concentration, obtained from inhibition or displacement.
